The data set is described as follows: logP determination by HPLC on reverse-phase column (C 18), EEC directive 79/831 Annex V.A8. In kind it is physicochemical. As to the method: In the acidic range, the determination is carried out at pH 2.3 using the mobile phases 0.1% aqueous phosphoric acid and acetonitrile; linear gradient from 10% acetonitrile to 90% acetonitrile.
In the neutral range, the determination is carried out at pH 7.5 using the mobile phases 0.01 molar aqueous phosphate buffer solution and acetonitrile; linear gradient from 10% acetonitrile to 90% acetonitrile.

Where [1] appears, read: reverse-phase HPLC column (C 18), pH 7.5, neutral range, pH 7.5; 0.01 molar aqueous phosphate buffer/acetonitrile gradient; 43° C.; values marked b).
[2] abbreviates: reverse-phase HPLC column (C 18), pH 2.3, acidic range, pH 2.3; 0.1% aqueous phosphoric acid/acetonitrile gradient; 43° C.; values marked a).

The compound `Fc1ccccc1C1=NC(c2ccc(OC(F)(F)F)cc2)CC1` (stereo not shown) [Example 68] gave a chromatographic logP under setting [1] of 4.41.

For `Cc1ccc(C2CCC(c3ccccc3Br)=N2)c(C)c1` (stereo not shown) [Example 80], the chromatographic logP is 2.55 under setting [2] and 4.46 under setting [1].

The compound `FC(F)(F)Oc1ccc(-c2ccc(C3CCC(c4ccccc4OC(F)(F)F)=N3)cc2)cc1` (stereo not shown) [Example 7] yielded a chromatographic logP under setting [2] of 4.83.

On to `Fc1ccc(F)c(C2=NC(c3ccc(-c4ccc(SC(F)(F)F)cc4)cc3)CC2)c1F` (stereo not shown) [Example 115], for which, under setting [2], the chromatographic logP stood at 5.46.

Under setting [2], `CCOC(=O)Oc1ccc(-c2ccc(C3CCC(=O)N3)cc2)cc1` (stereo not shown) [Example V-20] displayed a chromatographic logP of 2.39.

On to `FC(F)(F)Oc1ccc(-c2ccc(C3CCC(c4ccc(Br)cc4)=N3)cc2)cc1` (stereo not shown) [Example 101], for which the chromatographic logP stood at 3.51 under setting [2] and 5.95 under setting [1].

Consider `CC(C)(C)c1ccc(C2CCC(c3ccccc3Cl)=N2)cc1` (stereo not shown) [Example 20], for which, under setting [2], the chromatographic logP worked out at 3.05.

With `Cc1ccc(C2CCC(c3ccccc3Cl)=N2)cc1` (stereo not shown) [Example 74], the chromatographic logP amounted to 1.96 under setting [2] and 4.04 under setting [1].

The compound `FC(F)(F)Oc1ccc(C2=NC(c3cccc(Cl)c3)CC2)cc1` (stereo not shown) [Example 105] registered a chromatographic logP under setting [2] of 4.87.

Under setting [2], `FC(F)(F)Oc1ccc(C2CCC(c3ccccc3Br)=N2)cc1` (stereo not shown) [Example 1, 5-(2-bromophenyl)-2-[4-(trifluoro-methoxy)phenyl]-3,4-dihydro-2H-pyrrole] yielded a chromatographic logP of 3.61.

`COc1ccc(C2=NC(c3ccc(-c4ccc(OC(F)(F)F)cc4)cc3)CC2)cc1` (stereo not shown) [Example 116] yielded a chromatographic logP under setting [2] of 2.94.

Take `Fc1ccc(C2CCC(c3ccccc3Cl)=N2)cc1F` (stereo not shown) [Example 49]: the chromatographic logP stood at 2.67 under setting [2] and 3.86 under setting [1].

As to `Fc1ccc(C2CCC(c3ccc(Cl)cc3)=N2)cc1` (stereo not shown) [Example 34], the chromatographic logP is, setting by setting: under setting [2], 1.63; under setting [1], 3.99.

`O=C1CCC(c2ccc(-c3ccc(SC(F)(F)F)cc3)cc2)N1` (single isomer, unassigned; isomer 5) [V-2 para isomer, 5-{4′-[(trifluoromethyl)thio]-1,1′-biphenyl-4-yl}-2-pyrrolidinone] displayed a chromatographic logP under setting [2] of 3.24.

In turn, `Fc1cccc(F)c1C1=NC(c2ccc(OC(F)(F)F)cc2)CC1` (stereo not shown) [Example 73] gave a chromatographic logP under setting [1] of 4.13.

With `Fc1ccccc1C1=NC(c2ccc(-c3ccc(OC(F)(F)F)cc3)cc2)CC1` (stereo not shown) [Example 4], the chromatographic logP under setting [2] amounted to 3.09 and the chromatographic logP under setting [1] was found to be 5.45.

As to `CC(C)Oc1cc(-c2ccccc2)ccc1C1CCC(c2ccccc2Cl)=N1` (stereo not shown) [Example 103], the chromatographic logP under setting [2] turned out to be 3.26.

Compound `Fc1ccc(C2CCC(c3ccccc3Br)=N2)cc1` (stereo not shown) [Example 99] gave a chromatographic logP under setting [2] of 2.18.

`Fc1ccccc1C1=NC(c2ccc(Br)cc2)CC1` (stereo not shown) [Example 97] showed a chromatographic logP under setting [2] of 1.83.

`CC(C)Oc1ccc(C2CCC(c3c(F)cccc3F)=N2)cc1` (stereo not shown) [Example 110]: under setting [2], the chromatographic logP stood at 2.14.

As for `Cc1ccc(C2CCC(c3ccccc3Cl)=N2)cc1Cl` (stereo not shown) [Example 54], the chromatographic logP is, setting by setting: under setting [2], 2.98; under setting [1], 4.67.

On to `CSc1ccc(C2CCC(c3ccccc3F)=N2)cc1` (stereo not shown) [Example 85], for which the chromatographic logP under setting [2] stood at 1.62 and the chromatographic logP under setting [1] stood at 3.88.

For the compound `Fc1cc(F)c(C2=NC(c3ccc(-c4ccc(SC(F)(F)F)cc4)cc3)CC2)c(F)c1` (stereo not shown) [Example 114], under setting [2], the chromatographic logP is 5.05.

In the case of `Fc1ccc(C2CCC(c3ccccc3F)=N2)cc1F` (stereo not shown) [Example 63], the chromatographic logP reads like this: under setting [2], 1.74; under setting [1], 3.74.

Turning to `Cc1cc(Cl)ccc1C1CCC(c2ccccc2F)=N1` (stereo not shown) [Example 39], the chromatographic logP reads like this: under setting [2], 2.09; under setting [1], 4.51.

Take `Clc1cccc(C2=NC(c3ccccc3)CC2)c1Cl` (stereo not shown) [Example 69]: under setting [1], the chromatographic logP worked out at 4.07.

Take `Cc1cc(OC(F)(F)F)ccc1-c1ccc(C2CCC(c3c(F)cccc3F)=N2)cc1` (stereo not shown) [Example 111]: the chromatographic logP under setting [2] is 4.55.

In the case of `Brc1ccc(C2CCC(c3ccccc3Br)=N2)cc1` (stereo not shown) [Example 98], the chromatographic logP under setting [2] turned out to be 3.11.

The compound `CC(C)Oc1ccc(-c2ccc(C3CCC(=O)N3)cc2)cc1` (stereo not shown) [Example V-21] came in with a chromatographic logP under setting [2] of 2.77.

Compound `O=C1CCC(c2ccc(-c3ccc(OCc4ccc(Cl)cc4)cc3)cc2)N1` (stereo not shown) [Example V-22] returned a chromatographic logP under setting [2] of 3.62.

On to `Cc1cc(Cl)ccc1C1CCC(c2ccccc2Cl)=N1` (stereo not shown) [Example 28], for which the chromatographic logP reads like this: under setting [2], 3.18; under setting [1], 4.62.

As for `CSc1ccc(C2CCC(c3ccccc3Cl)=N2)cc1` (stereo not shown) [Example 55], the chromatographic logP runs as follows: under setting [2], 2.19; under setting [1], 4.

In the case of `Fc1ccccc1C1=NC(c2ccc(-c3ccc(SC(F)(F)F)cc3)cc2)CC1` (stereo not shown) [Example 17], the chromatographic logP reads like this: under setting [2], 3.45; under setting [1], 5.84.

`O=C1CCC(c2ccc(-c3ccc(OCc4ccc(OC(F)(F)F)cc4)cc3)cc2)N1` (stereo not shown) [Example V-23]: the chromatographic logP under setting [2] is 3.83.

On to `CCOc1cc(C(C)(C)C)ccc1C1CCC(=O)N1C(=O)OC(C)(C)C` (stereo not shown) [III-28], for which the chromatographic logP under setting [2] amounted to 4.4.

For the compound `CC(C)(C)OC(=O)N1C(=O)CCC1c1ccc(Cl)c(Cl)c1` (stereo not shown) [III-11], the chromatographic logP under setting [2] was 3.29.

For `COc1ccc(C2CCC(c3ccccc3Cl)=N2)cc1F` (stereo not shown) [Example 40], the chromatographic logP under setting [2] came to 1.97 and the chromatographic logP under setting [1] is 3.52.

For `O=C1CCC(c2ccc(O)cc2)N1` (stereo not shown) [Example V-19], under setting [2], the chromatographic logP worked out at 0.55.

Consider `Fc1cccc(F)c1C1=NC(c2ccc(SCc3ccc(Cl)cc3)cc2)CC1` (stereo not shown) [Example 59], for which the chromatographic logP under setting [2] was determined as 2.88.

`Fc1ccccc1C1=NC(c2ccc(C3CCCCC3)cc2)CC1` (stereo not shown) [Example 79]: the chromatographic logP reads like this: under setting [2], 2.86; under setting [1], 5.95.

`CC(C)(C)OC(=O)N1C(=O)CCC1c1ccc(F)cc1F` (stereo not shown) [III-16] showed a chromatographic logP under setting [2] of 2.69.

`Clc1ccc(C2=NC(c3ccc(Br)cc3)CC2)cc1` (stereo not shown) [Example 92] had a chromatographic logP under setting [2] of 2.17.

`O=C1CCC(c2ccc(Br)cc2)N1` (stereo not shown) [Example V-16]: the chromatographic logP under setting [2] turned out to be 1.72.

Under setting [2], `CC(C)(C)OC(=O)N1C(=O)CCC1c1ccc(-c2ccc(OCc3ccc(Cl)cc3)cc2)cc1` (stereo not shown) [III-24] yielded a chromatographic logP of 4.93.

In the case of `Cc1ccccc1C1=NC(c2ccc(Cl)cc2C)CC1` (stereo not shown) [Example 30], the chromatographic logP was determined as 2.06 under setting [2] and 4.79 under setting [1].

Under setting [2], `Cc1ccc(C2CCC(=O)N2C(=O)OC(C)(C)C)c(Cl)c1` (stereo not shown) [III-9] came in with a chromatographic logP of 3.83.

With `Cc1ccc(C2CCC(=O)N2C(=O)OC(C)(C)C)cc1Cl` (stereo not shown) [III-14], the chromatographic logP under setting [2] was found to be 3.3.

Turning to `O=C1CCC(c2ccc(-c3ccc(O)cc3)cc2)N1` (stereo not shown) [Example V-18], the chromatographic logP under setting [2] worked out at 1.47.

For `Cc1ccc(C2CCC(c3ccccc3Br)=N2)c(Cl)c1` (stereo not shown) [Example 47], the chromatographic logP by setting is: under setting [2], 3.98; under setting [1], 4.88.

Turning to `Fc1ccc(C2CCC(c3cccc(Cl)c3)=N2)cc1` (stereo not shown) [Example 33], the chromatographic logP runs as follows: under setting [2], 1.98; under setting [1], 4.05.

In the case of `CC(C)(C)c1ccc(C2CCC(c3ccccc3Br)=N2)cc1` (stereo not shown) [Example 26], the chromatographic logP reads like this: under setting [2], 3.36; under setting [1], 5.21.

The values are drawn from patent US7250521B2, “Method for production of Δ1-pyrrolines” (Bayer CropScience Aktiengesellschaft, priority 2001, dated 2007).
